Laboratory results as given in patent US5401743A, “Aminoalkyl-substituted 2-amino-5-mercaptothiadiazoles the preparation and use thereof” (BASF Aktiengesellschaft, priority 1991, dated 1995).
Where a name gives a salt, the structure may show the parent alone. Read-outs that look alike come from different tables or passages of the source.

Biological target: T1, dopamine D2 receptor (Rattus norvegicus, UniProt P61169)
T1 construct: Striata from rats (Sprague Dawley, Charles River) were homogenized immediately after removal; from tissue; host or cells: rat striatum (Sprague Dawley, Charles River), membranes
T1 sequence (P61169 whole entry): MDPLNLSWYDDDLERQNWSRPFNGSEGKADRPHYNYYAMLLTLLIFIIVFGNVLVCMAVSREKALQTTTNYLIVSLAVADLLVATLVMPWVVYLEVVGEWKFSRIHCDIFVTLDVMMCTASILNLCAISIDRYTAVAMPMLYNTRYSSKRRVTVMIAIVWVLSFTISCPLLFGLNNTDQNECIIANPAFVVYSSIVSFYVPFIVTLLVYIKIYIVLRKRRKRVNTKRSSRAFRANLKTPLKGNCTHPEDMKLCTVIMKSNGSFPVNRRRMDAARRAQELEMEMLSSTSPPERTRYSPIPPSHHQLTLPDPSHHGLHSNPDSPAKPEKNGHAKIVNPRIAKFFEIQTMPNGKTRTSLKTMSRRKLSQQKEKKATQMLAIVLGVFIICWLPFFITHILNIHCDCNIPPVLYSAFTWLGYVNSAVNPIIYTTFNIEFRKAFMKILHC
Experiment: Receptor binding assay: affinity for the dopamine D2 receptor (3H-ADTN displacement, rat striatal membranes)
Parameters: species or system rat (Sprague Dawley)
Description: The effects of the novel compounds can be shown in the receptor binding assay as follows:
Striata from rats (Sprague Dawley, Charles River) were homogenized immediately after removal in 0.32M sucrose solution (0° C.). The homogenate was filtered through gauze, the filtrate was centrifuged at 1000 xg (5 min at 4° C.) and the resulting supernatant was centrifuged at 40000 xg (4° C., 10 min). The residue (membranes) was taken up in incubation buffer (50 mM tris-HCl, 1 mM MgCl2 and 0.1% ascorbic acid, pH 7.4) and incubated at 37° C. for 20 min. The residue was subsequently washed 2× with incubation buffer by resuspension and recentrifugation. The membranes were frozen in portions in liquid nitrogen.
The assay mixtures (1 ml) were composed of membranes (380 μg of protein), 1 nM ^3 H-ADTN (NEN, Dreieich Germany, specific radioactivity 1.4 TBq/mmol) and 0.1 μM SCH 23390 (total binding) or a) with the addition of 50 nM spiperone (non-specific binding) or b) with test substance. The mixtures were prepared in triplicate.
After the incubation (40 min at 25° C.) the mixtures were filtered through glass fiber filters (Whatman GF/B) and briefly washed with ice-cold washing buffer (Tris-HCl, pH 7.4). The radioactivity retained on the filters was determined by liquid scintillation counting. The non-specific binding comprised about 40-50% of the total binding.
The evaluation of the competition plots and the determination of the dissociation constant took place by iterative non-linear regression analysis based on the "ligand" program (Muson and Rodbard: Anal. Biochem. 107 (1980) 220).
Affinity of the test substances for the dopamine D2 receptor

[1] = rat striatal membranes, 1 nM 3H-ADTN, 0.1 μM SCH 23390, 40 min at 25° C., pH 7.4, non-specific binding with 50 nM spiperone, read-out: Ki (affinity of the test substances for the dopamine D2 receptor)

Row | SMILES | Ki [1] | Ki
1 | Nc1nnc(SCCN2CC=C(c3ccccc3)CC2)s1 [Example 3, 2-Amino-5-[2-(4-phenyl-1,2,3,6-tetrahydropyridyl)-ethylthio]-1,3,4-thiadiazole dihydrochloride] | – | 12 nM
2 | Nc1nnc(SCCCN2CC=C(c3ccccc3)CC2)s1 [Example 4, 2-Amino-5-[3-(4-phenyl-1,2,3,6-tetrahydropyridyl)-propylthio]-1,3,4-thiadiazole hydrochloride] | – | 6 nM
3 | Nc1nnc(SCCN2CCC(c3ccccc3)CC2)s1 [Example 8, 2-Amino-5-[2-(4-phenylpiperidinyl)ethylthio]-1,3,4-thiadiazole hydrochloride] | 45 nM | –
4 | CCCN(CCCSc1nnc(N)s1)CCc1ccccc1 [Example 9, 2-Amino-5-[3-(2-phenylethyl-n-propylamino)propylthio]-1,3,4-thiadiazole tartrate] | 45 nM | –

More lines, main results first:

Row | Ki [1] | SMILES | Ki
5 | 125 nM | Nc1nnc(SCCCN2CCN(c3ccc(F)cc3)CC2)s1 [Example 1, 2-Amino-5-[3-(4-fluorophenylpiperazinyl)propylthio]-1,3,4-thiadiazole dihydrochloride] | –
6 | 15 nM | CCOc1ccccc1N1CCN(CCSc2nnc(N)s2)CC1 [Example 11, 2-Amino-5-[2-(4-(2-ethoxyphenyl)piperazinyl)ethylthio]-1,3,4-thiadiazole hydrochloride] | –
7 | 36 nM | Cc1cccc(N2CCN(CCCSc3nnc(N)s3)CC2)c1 [Example 14, 2-Amino-5-[3-(4-(3-methylphenyl)piperazinyl)propylthio]-1,3,4-thiadiazole hydrochloride] | –
